In general, GI50 refers to the concentration at which growth is held to half of that of the control.

For one assay, the system named is MDA-MB-231. Kind of assay: Growth inhibition of human MDA-MB-231 cells incubated for 3 days by CellTiter 96 aqueous nonradioactive cell proliferation assay. The note with it: MDA-MB-231, 72 h. It counts as functional.
Another assay concerns NCI-H1975. Kind of assay: Growth inhibition of human NCI-H1975 cells incubated for 3 days by CellTiter 96 aqueous nonradioactive cell proliferation assay. The note with it: NCI-H1975, 72 h. It counts as functional.

On to `CC(C)c1cc(C(=O)N2CCc3sccc3C2)c(O)cc1O`, for which the GI50 in the assay with MDA-MB-231 was found to be 478 nM; with NCI-H1975, 1670 nM.

Values taken from ChEMBL document CHEMBL4359903, “1,2,4-Oxadiazole derivatives targeting EGFR and c-Met degradation in TKI resistant NSCLC” (Eur J Med Chem, 2019).
